Active and inactive are the calls of the source. No cut-off for these calls is given here.
Experiments:
[1] = test system: Zika virus; assay: Antiviral activity against Zika virus French Polynesia infected in human A549 cells assessed as reduction in viral RNA at 5 uM measured after 24 to 72 hrs post infection by RT-qPCR analysis; assay type: functional, organism-based
[2] = test system: Zika virus; assay: Antiviral activity against Zika virus Uganda infected in human A549 cells assessed as reduction in viral RNA at 5 uM measured after 24 to 72 hrs post infection by RT-qPCR analysis; assay type: functional, organism-based
[3] = test system: A549; assay: Cytotoxicity against human A549 cells assessed as reduction in cell viability up to 5 uM by Presto blue cell viability reagent based assay
[4] = test system: dengue virus type 2; assay: Antiviral activity against Dengue virus 2 infected in African green monkey Vero cells assessed as suppression of viral replication at 10 uM pre-incubated with cells for 1 hr before viral infection and measured after 4 days by RT-qPCR analysis; assay type: functional, organism-based
[5] = test system: Zika virus; assay: Antiviral activity against Zika virus infected in African green monkey Vero cells assessed as suppression of viral replication at 10 uM pre-incubated with cells for 1 hr before viral infection and measured after 4 days by RT-qPCR analysis; assay type: functional, organism-based
[6] = Drug metabolism in rat liver microsomes assessed as formation of (R)-N-(5,6-Dimethoxybenzo[d]thiazol-2-yl)-1-((4-(hydroxymethyl) phenyl) sulfonyl)pyrrolidine-2-carboxamide in presence of NADPH generating system by LC-MS/MS analysis; assay type: ADME, Microsome
[7] = Drug metabolism in rat liver microsomes assessed as formation of (S)-N-(5,6-Dimethoxybenzo[d]thiazol-2-yl)-1-((4-(hydroxymethyl) phenyl) sulfonyl)pyrrolidine-2-carboxamide in presence of NADPH generating system by LC-MS/MS analysis; assay type: ADME, Microsome
[8] = Drug metabolism in rat liver microsomes assessed as formation of (S)-1-Benzoyl-N-(5,6-dihydroxybenzo[d]thiazol-2-yl)pyrrolidine-2-carboxamide in presence of NADPH generating system by LC-MS/MS analysis; assay type: ADME, Microsome
[9] = Drug metabolism in rat liver microsomes assessed as formation of (R)-N-(5,6-Dihydroxybenzo[d]thiazol-2-yl)-1-tosylpyrrolidine-2-carboxamide in presence of NADPH generating system by LC-MS/MS analysis; assay type: ADME, Microsome
[10] = Permeability in human C2BBe1 cells at 10 uM incubated for 3 hrs by LC-MS analysis relative to control; assay type: ADME, cell-based; conditions: c2bbe1, 3 h
[11] = biological target: T1, Nonstructural protein 3 (Zika virus, UniProt A0A024AXB9); assay: Inhibition of Zika virus NS2B/NS3 protease
T1 sequence (A0A024AXB9 whole entry): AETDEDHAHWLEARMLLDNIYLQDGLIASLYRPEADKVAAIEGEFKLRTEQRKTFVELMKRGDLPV

[12] = biological target: T1, Nonstructural protein 3; assay: Inhibition of N-terminal hexa-histidine tagged Zika virus NS2B/NS3 protease expressed in Escherichia coli BL21-Gold (DE3) using fluorogenic AMC-substituted peptide boc-GRR-7-amino-4-methylcoumarin measured every 30 secs for 10 mins by fluorometric assay
[13] = (§1) Inhibition of N-terminal hexa-histidine tagged Dengue virus 2 NS2B/NS3 protease I30A/L31A mutant expressed in Escherichia coli BL21-Gold (DE3) using fluorogenic AMC-substituted peptide boc-GRR-7-amino-4-methylcoumarin measured every 30 secs for 10 mins by fluorometric assay; parameters: species or system dengue virus type 2
[14] = as §1, with “(DE3) in presence of N-benzylmaleimide” for “(DE3)”; parameters: species or system dengue virus type 2
[15] = as §1, with “(DE3) in presence of N-ethylmaleimide” for “(DE3)”; parameters: species or system dengue virus type 2
[16] = (§2) Inhibition of N-terminal hexa-histidine tagged Dengue virus 2 NS2B/NS3 protease I30A/L31A/T118C mutant expressed in Escherichia coli BL21-Gold (DE3) using fluorogenic AMC-substituted peptide boc-GRR-7-amino-4-methylcoumarin measured every 30 secs for 10 mins by fluorometric assay; parameters: species or system dengue virus type 2
[17] = as §2, with “(DE3) in presence of N-benzylmaleimide” for “(DE3)”; parameters: species or system dengue virus type 2
[18] = (§3) Inhibition of N-terminal hexa-histidine tagged Dengue virus 2 NS2B/NS3 protease I30A/L31A/T120C mutant expressed in Escherichia coli BL21-Gold (DE3) using fluorogenic AMC-substituted peptide boc-GRR-7-amino-4-methylcoumarin measured every 30 secs for 10 mins by fluorometric assay; parameters: species or system dengue virus type 2
[19] = as §3, with “(DE3) in presence of N-benzylmaleimide” for “(DE3)”; parameters: species or system dengue virus type 2
[20] = as §3, with “(DE3) in presence of N-ethylmaleimide” for “(DE3)”; parameters: species or system dengue virus type 2
[21] = (§4) Inhibition of N-terminal hexa-histidine tagged Dengue virus 2 NS2B/NS3 protease I30A/L31A/T122C mutant expressed in Escherichia coli BL21-Gold (DE3) using fluorogenic AMC-substituted peptide boc-GRR-7-amino-4-methylcoumarin measured every 30 secs for 10 mins by fluorometric assay; parameters: species or system dengue virus type 2
[22] = as §4, with “(DE3) in presence of N-benzylmaleimide” for “(DE3)”; parameters: species or system dengue virus type 2
[23] = as §4, with “(DE3) in presence of N-ethylmaleimide” for “(DE3)”; parameters: species or system dengue virus type 2
[24] = test system: Zika virus; assay: Antiviral activity against Zika virus infected in human A549 cells assessed as induction of redistribution of the ZIKV Env protein from ER to cytoplasm at 0.5 uM by confocal scanning microscopy; assay type: functional, organism-based

In the case of `COc1cc2nc(NC(=O)[C@H]3CCCN3S(=O)(=O)c3ccc(C)cc3)sc2cc1OC`, the Activity [1] is reported as “inactive”, the Activity [2] is reported as “inactive” and the Activity [3] is reported as “Non-Toxic”. For the same molecule, the Activity [4] was “Active”, the Activity [5] was “inactive” and the Drug metabolism [6] was “Metabolite_Detected”. The Drug metabolism [7] was “Metabolite_Detected”, the Drug metabolism [8] was “Metabolite_Detected” and the Drug metabolism [9] was “Metabolite_Detected”. It also gave a permeability [10] of 91%.
For `O=C(Nc1nc2cc(O)c(O)cc2s1)c1ccccc1Oc1ccc2cc(O)ccc2c1`, the Activity [1] was “inactive”, the Activity [2] was “inactive” and the Activity [3] was “Non-Toxic”. For the same molecule, the IC50 [11] was 1.42 µM, the IC50 [12] was 1.41 µM and the IC50 [13] was 4.2 to 4.22 µM. It also gave an IC50 [14] of 4.96 µM, an IC50 [15] of 4.11 µM and an IC50 [16] of 1 µM. For the same molecule, the IC50 [17] was 7.06 µM, the IC50 [18] was 1.97 µM and the IC50 [19] was 12.6 µM. The IC50 [20] was 8.53 µM, the IC50 [21] was 2.67 µM and the IC50 [22] was 15.8 µM. The IC50 [23] was 14.1 µM, the Activity [24] was “inactive” and the Activity [5] was “inactive”.

Source: ChEMBL document CHEMBL4334527, “Proline-Based Allosteric Inhibitors of Zika and Dengue Virus NS2B/NS3 Proteases” (J Med Chem, 2019)
